Source: PMC7211202 (Investigational New Drugs, 2019)
Where “and” joins values, the source holds several entries; their conditions need not be identical. Identical values can stand only once.

Assay: Patient incidence of adverse events (CTCAE version 4.0)
Type: in vivo
Excerpt: Each patient was monitored for 21 days for the occurrence of dose-limiting toxicities (DLTs), defined as febrile neutropenia, neutropenic infection, grade 4 neutropenia lasting >7 days, grade ≥ 3 thrombocytopenia lasting >7 days (solid tumors only), grade 3 thrombocytopenia with grade ≥ 2 bleeding (solid tumors only), grade 3 or 4 thrombocytopenia with grade > 1 bleeding (multiple myeloma only), grade 4 thrombocytopenia (solid tumors only), or grade 4 thrombocytopenia lasting >14 days (multiple myeloma only), or as grade ≥ 3 nausea, vomiting, or diarrhea after support; grade 3 fatigue lasting >7 days; any other grade ≥ 3 adverse event (AE); grade ≥ 3 kidney injury (multiple myeloma only), or treatment-related AEs not returning to grade ≤ 1 (solid tumors only) per Common Terminology Criteria for Adverse Events (CTCAE), version 4.0. The MTD was defined as the maximum dose, at which the probability of a DLT was ≤25% in Part 1A and ≤ 33% in Parts 1B and 1C. Treatment continued until disease progression, intolerable toxicity, or withdrawal of consent.
AEs were recorded for all enrolled patients.

[1] = 240-mg dose expansion, Other Solid (n = 16)
[2] = 240-mg dose expansion, Total (n = 68)
[3] = 240-mg dose expansion, WDLPS (n = 10)
[4] = 240-mg dose expansion, all patients

In the case of CC(C)[C@@H](CS(=O)(=O)C(C)C)N1C(=O)[C@@](C)(CC(=O)O)C[C@H](c2cccc(Cl)c2)[C@H]1c1ccc(Cl)cc1 [AMG 232], the “Serious, treatment-related AE: Hyperlipasemia (grade 3)” value (“Serious … Hyperlipasemia (grade 3)” below) [1] is reported as 0 n (%), the “Serious, treatment-related AE: Nausea (grade 3)” value [1] is reported as 0 n (%) and the “Serious, treatment-related AE: Pulmonary embolism (grade 3)” value (“Serious … Pulmonary embolism (grade 3)” below) [1] is reported as 0 n (%). For the same molecule, the “Serious, treatment-related AE: Vomiting (grade 3)” value (“Serious … Vomiting (grade 3)” below) [1] was 0 n (%), the “Treatment-related AE: Anemia” value [1] was 3 (19) n (%) and the “Treatment-related AE: Asthenia” value [1] was 2 (13) n (%). The “Treatment-related AE: Decrease appetite” value [1] was 4 (25) n (%), the “Treatment-related AE: Diarrhea” value [1] was 8 (50) n (%) and the “Treatment-related AE: Dysgeusia” value [1] was 2 (13) n (%). The “Treatment-related AE: Fatigue” value [1] was 6 (38) n (%), the “Treatment-related AE: Nausea” value [1] was 11 (69) n (%) and the “Treatment-related AE: Neutropenia” value [1] was 1 (6) n (%). For the same molecule, the “Treatment-related AE: Thrombocytopenia” value [1] was 2 (13) n (%), the “Treatment-related AE: Vomiting” value [1] was 8 (50) n (%) and the “Patients with any treatment-emergent AE” value [2] was 67 (99%) n (%) and 67 (99) n (%). For the same molecule, the “Patients with any treatment-emergent serious AE” value [2] was 29 (43%) n (%) and 29 (43) n (%), the “Patients with any treatment-related AE, Grade 3” value (from here on “Patients … Grade 3”) [2] was 25 (37) n (%) and the “Patients with any treatment-related AE, Grade 4” value (shortened to “Patients … Grade 4”) [2] was 8 (12) n (%). For the same molecule, the “Patients with any treatment-related AE, Grade 5” value (“Patients … Grade 5” below) [2] was 0 n (%), the “Serious, treatment-related AE: Dehydration (grade 3)” value [2] was 1 (2) n (%) and the “Serious, treatment-related AE: Diarrhea (grade 3)” value [2] was 1 (2) n (%). The “Serious, treatment-related AE: Hyperamylasemia (grade 3)” value [2] was 1 (2) n (%), the “Serious … Hyperlipasemia (grade 3)” value [2] was 1 (2) n (%) and the “Serious, treatment-related AE: Nausea (grade 3)” value [2] was 1 (2) n (%). The “Serious … Pulmonary embolism (grade 3)” value [2] was 1 (2) n (%), the “Serious … Vomiting (grade 3)” value [2] was 3 (4) n (%) and the “Treatment-related AE: Anemia” value [2] was 10 (15) n (%). The “Treatment-related AE: Asthenia” value [2] was 9 (13) n (%), the “Treatment-related AE: Decrease appetite” value [2] was 28 (41) n (%) and the “Treatment-related AE: Diarrhea” value [2] was 46 (68) n (%). For the same molecule, the “Treatment-related AE: Dysgeusia” value [2] was 9 (13) n (%), the “Treatment-related AE: Fatigue” value [2] was 32 (47) n (%) and the “Treatment-related AE: Nausea” value [2] was 46 (68) n (%). For the same molecule, the “Treatment-related AE: Neutropenia” value [2] was 12 (18) n (%), the “Treatment-related AE: Thrombocytopenia” value [2] was 14 (21) n (%) and the “Treatment-related AE: Vomiting” value [2] was 32 (47) n (%). The “Patients with any serious, treatment-related AE” value [3] was 2 (20) n (%), the “Patients with any treatment-emergent AE” value [3] was 10 (100) n (%) and the “Patients with any treatment-emergent serious AE” value [3] was 5 (50) n (%). For the same molecule, the “Patients with any treatment-related AE” value [3] was 10 (100) n (%), the “Patients … Grade 3” value [3] was 6 (60) n (%) and the “Patients … Grade 4” value [3] was 3 (30) n (%). For the same molecule, the “Patients … Grade 5” value [3] was 0 n (%), the “Serious, treatment-related AE: Dehydration (grade 3)” value [3] was 1 (10) n (%) and the “Serious, treatment-related AE: Diarrhea (grade 3)” value [3] was 0 n (%). For the same molecule, the “Serious, treatment-related AE: Hyperamylasemia (grade 3)” value [3] was 0 n (%), the “Serious … Hyperlipasemia (grade 3)” value [3] was 0 n (%) and the “Serious, treatment-related AE: Nausea (grade 3)” value [3] was 0 n (%). The “Serious … Pulmonary embolism (grade 3)” value [3] was 1 (10) n (%), the “Serious … Vomiting (grade 3)” value [3] was 0 n (%) and the “Treatment-related AE: Anemia” value [3] was 5 (50) n (%). The “Treatment-related AE: Asthenia” value [3] was 0 n (%), the “Treatment-related AE: Decrease appetite” value [3] was 7 (70) n (%) and the “Treatment-related AE: Diarrhea” value [3] was 9 (90) n (%). The “Treatment-related AE: Dysgeusia” value [3] was 1 (10) n (%), the “Treatment-related AE: Fatigue” value [3] was 8 (80) n (%) and the “Treatment-related AE: Nausea” value [3] was 10 (100) n (%). For the same molecule, the “Treatment-related AE: Thrombocytopenia” value [3] was 6 (60) n (%), the “Treatment-related AE: Vomiting” value [3] was 7 (70) n (%) and the “Treatment-emergent AE: anemia” value [4] was 25%. For the same molecule, the “Treatment-emergent AE: decreased appetite” value [4] was 41%, the “Treatment-emergent AE: diarrhea” value [4] was 72% and the “Treatment-emergent AE: fatigue” value [4] was 53%. For the same molecule, the “Treatment-emergent AE: nausea” value [4] was 72%, the “Treatment-emergent AE: thrombocytopenia” value [4] was 24% and the “Treatment-emergent AE: vomiting” value [4] was 59%. For the same molecule, the “Treatment-related AE: Diarrhea” value [4] was 68%, the “Treatment-related AE: Fatigue” value [4] was 47% and the “Treatment-related AE: Nausea” value [4] was 68%. The “Treatment-related AE: Thrombocytopenia” value [4] was 21%, the “Treatment-related AE: Vomiting” value [4] was 47% and the “Treatment-related AE: decreased appetite” value [4] was 41%. The “Patients with fatal AEs while on study” value (240-mg dose expansion, two with disease progression and one with physical deterioration) was “Three”, the “AE resulting in treatment discontinuation: febrile neutropenia” value (dose escalation) was 1 n and the “AE resulting in treatment discontinuation: neutropenia” value (dose escalation) was 2 n. The “AE resulting in treatment discontinuation: thrombocytopenia” value (dose escalation) was 5 n, the “Patients with AEs resulting in treatment discontinuation” value (dose escalation) was “eight” and the “Patients with fatal AEs of disease progression while on study” value (dose escalation) was “Four”. For the same molecule, the “Patients with any treatment-emergent AE” value (dose escalation, 15 mg (n = 3)) was 1 (33) n (%), the “Patients with any treatment-emergent serious AE” value (dose escalation, 15 mg (n = 3)) was 1 (33) n (%) and the “Patients with any treatment-related AE” value (dose escalation, 15 mg (n = 3)) was 1 (33) n (%). The “Patients … Grade 3” value (dose escalation, 15 mg (n = 3)) was 0 n (%), the “Patients … Grade 4” value (dose escalation, 15 mg (n = 3)) was 0 n (%) and the “Patients … Grade 5” value (dose escalation, 15 mg (n = 3)) was 0 n (%). The “Patients with any treatment-related serious AE” value (dose escalation, 15 mg (n = 3)) was 0 n (%), the “Treatment-related AE: Abdominal pain” value (dose escalation, 15 mg (n = 3)) was 0 n (%) and the “Treatment-related AE: Anemia” value (dose escalation, 15 mg (n = 3)) was 0 n (%). The “Treatment-related AE: Asthenia” value (dose escalation, 15 mg (n = 3)) was 0 n (%), the “Treatment-related AE: Decrease appetite” value (dose escalation, 15 mg (n = 3)) was 0 n (%) and the “Treatment-related AE: Diarrhea” value (dose escalation, 15 mg (n = 3)) was 0 n (%). For the same molecule, the “Treatment-related AE: Dysgeusia” value (dose escalation, 15 mg (n = 3)) was 0 n (%), the “Treatment-related AE: Fatigue” value (dose escalation, 15 mg (n = 3)) was 1 (33) n (%) and the “Treatment-related AE: Myalgia” value (dose escalation, 15 mg (n = 3)) was 0 n (%). The “Treatment-related AE: Nausea” value (dose escalation, 15 mg (n = 3)) was 0 n (%), the “Treatment-related AE: Neutropenia” value (dose escalation, 15 mg (n = 3)) was 0 n (%) and the “Treatment-related AE: Thrombocytopenia” value (dose escalation, 15 mg (n = 3)) was 0 n (%). The “Treatment-related AE: Upper abdominal pain” value (dose escalation, 15 mg (n = 3)) was 0 n (%), the “Treatment-related AE: Vomiting” value (dose escalation, 15 mg (n = 3)) was 0 n (%) and the “Treatment-related serious AE: Abdominal pain (grade 2)” value (dose escalation, 15 mg (n = 3)) was 0 n (%). For the same molecule, the “Treatment-related serious AE: Dehydration (grade 2)” value (dose escalation, 15 mg (n = 3)) was 0 n (%), the “Treatment-related serious AE: Diarrhea” value (dose escalation, 15 mg (n = 3)) was 0 n (%) and the “Treatment-related serious AE: Diarrhea, Grade 2” value (dose escalation, 15 mg (n = 3)) was 0 n (%). For the same molecule, the “Treatment-related serious AE: Diarrhea, Grade 3” value (dose escalation, 15 mg (n = 3)) was 0 n (%), the “Treatment-related serious AE: Febrile neutropenia (grade 3)” value (dose escalation, 15 mg (n = 3)) was 0 n (%) and the “Treatment-related serious AE: Hematemesis (grade 3)” value (dose escalation, 15 mg (n = 3)) was 0 n (%). The “Treatment-related serious AE: Nausea (grade 3)” value (dose escalation, 15 mg (n = 3)) was 0 n (%), the “Treatment-related serious AE: Neutropenia (grade 4)” value (dose escalation, 15 mg (n = 3)) was 0 n (%) and the “Treatment-related serious AE: Non-cardiac chest pain (grade 3)” value (dose escalation, 15 mg (n = 3)) was 0 n (%). For the same molecule, the “Treatment-related serious AE: Thrombocytopenia (grade 4)” value (dose escalation, 15 mg (n = 3)) was 0 n (%), the “Treatment-related serious AE: Vomiting” value (dose escalation, 15 mg (n = 3)) was 0 n (%) and the “Treatment-related serious AE: Vomiting, Grade 2” value (dose escalation, 15 mg (n = 3)) was 0 n (%). For the same molecule, the “Treatment-related serious AE: Vomiting, Grade 3” value (dose escalation, 15 mg (n = 3)) was 0 n (%), the “Patients with any treatment-emergent AE” value (dose escalation, 30 mg (n = 3)) was 3 (100) n (%) and the “Patients with any treatment-emergent serious AE” value (dose escalation, 30 mg (n = 3)) was 0 n (%). For the same molecule, the “Patients with any treatment-related AE” value (dose escalation, 30 mg (n = 3)) was 1 (33) n (%), the “Patients … Grade 3” value (dose escalation, 30 mg (n = 3)) was 0 n (%) and the “Patients … Grade 4” value (dose escalation, 30 mg (n = 3)) was 0 n (%). For the same molecule, the “Patients … Grade 5” value (dose escalation, 30 mg (n = 3)) was 0 n (%), the “Patients with any treatment-related serious AE” value (dose escalation, 30 mg (n = 3)) was 0 n (%) and the “Treatment-related AE: Abdominal pain” value (dose escalation, 30 mg (n = 3)) was 0 n (%). For the same molecule, the “Treatment-related AE: Anemia” value (dose escalation, 30 mg (n = 3)) was 0 n (%), the “Treatment-related AE: Asthenia” value (dose escalation, 30 mg (n = 3)) was 0 n (%) and the “Treatment-related AE: Decrease appetite” value (dose escalation, 30 mg (n = 3)) was 0 n (%). The “Treatment-related AE: Diarrhea” value (dose escalation, 30 mg (n = 3)) was 1 (33) n (%), the “Treatment-related AE: Dysgeusia” value (dose escalation, 30 mg (n = 3)) was 0 n (%) and the “Treatment-related AE: Fatigue” value (dose escalation, 30 mg (n = 3)) was 1 (33) n (%). The “Treatment-related AE: Myalgia” value (dose escalation, 30 mg (n = 3)) was 0 n (%), the “Treatment-related AE: Nausea” value (dose escalation, 30 mg (n = 3)) was 1 (33) n (%) and the “Treatment-related AE: Neutropenia” value (dose escalation, 30 mg (n = 3)) was 0 n (%). The “Treatment-related AE: Thrombocytopenia” value (dose escalation, 30 mg (n = 3)) was 0 n (%), the “Treatment-related AE: Upper abdominal pain” value (dose escalation, 30 mg (n = 3)) was 0 n (%) and the “Treatment-related AE: Vomiting” value (dose escalation, 30 mg (n = 3)) was 1 (33) n (%). For the same molecule, the “Treatment-related serious AE: Abdominal pain (grade 2)” value (dose escalation, 30 mg (n = 3)) was 0 n (%).
